# Measured values as given in ChEMBL document CHEMBL1123432, “Methotrexate analogues. 28. Synthesis and biological evaluation of new gamma-monoamides of aminopterin and methotrexate” (J Med Chem, 1986).
# Values joined by “and” are separate entries in the source; they are usually repeats but may differ in a detail not shown here. Identical values can stand only once.
# Assays:
# [1] = molecular target: T1, Dihydrofolate reductase (Mus musculus, UniProt P00375); assay: biochemical
# T1 sequence (P00375 whole entry): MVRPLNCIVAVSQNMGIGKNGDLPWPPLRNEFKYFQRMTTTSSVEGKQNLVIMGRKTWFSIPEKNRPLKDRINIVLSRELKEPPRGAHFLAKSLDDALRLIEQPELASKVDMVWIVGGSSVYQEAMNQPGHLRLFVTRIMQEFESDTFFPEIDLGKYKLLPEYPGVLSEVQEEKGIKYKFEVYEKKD
# Description: Compound was tested for its inhibitory concentration to inhibit the enzyme Dihydro Folate Reductase (DHFR) from murine L1210 leukemia cells.
# [2] = species: Mus musculus; assay: Compound was tested against weight change in mice with L1210 leukemia cells on 10 th Day at Dose 40 mg / kg; conditions: at 40 mg/kg
# [3] = test system: Mus musculus; assay: Median Survival days of mice infected with L1210 leukemia cells at dose 40 mg/kg relative to that of 9 days for control in expt 1; type: functional
# [4] = test system: L1210; assay: Compound was tested for its inhibitory concentration to inhibit the growth of wild type L1210 cells.; type: functional, cell-based, Mus musculus
# [5] = test system: Mus musculus; assay: Median Survival days of mice infected with L1210 leukemia cells at dose 80 mg/kg relative to that of 9 days for control in expt 1; type: functional
# [6] = test system: Mus musculus; assay: Increase in life span of mice with L1210 leukemia cells at a dose of 80 mg/kg in exp 1; type: functional
# [7] = test system: Mus musculus; assay: Median Survival days of mice infected with L1210 leukemia cells at dose 100 mg/kg relative to that of 9 days for control in expt 2; type: functional
# [8] = test system: L1210; assay: Compound was tested for its inhibitory concentration to inhibit the growth of wild type L1210 cells and a subline (L1210 / R81).; type: functional, cell-based; conditions: Mus musculus
# [9] = species: Mus musculus; assay: Compound was tested against weight change in mice with L1210 leukemia cells on 7 th Day at Dose 100 mg / kg; type: functional; conditions: at 100 mg/kg
# [10] = test system: Mus musculus; assay: Increase in life span of mice with L1210 leukemia cells at a dose of 40 mg/kg in exp 1; type: functional
# [11] = test system: Mus musculus; assay: Increase in life span of mice with L1210 leukemia cells at a dose of 100 mg/kg; type: functional
# [12] = species: Mus musculus; assay: Compound was tested against weight change in mice with L1210 leukemia cells on 10 th Day at Dose 80 mg / kg; conditions: at 80 mg/kg
# [13] = molecular target: T2, Dihydrofolate reductase (Mus musculus) (UniProt P00375); conditions: L1210
# T2 sequence (whole entry): T1 sequence (P00375 whole entry)
# Description: Compound was tested for inhibition of the enzyme DiHydroFolate Reductase (DHFR) from murine L1210 leukemia cells
# [14] = test system: Mus musculus; assay: Increase in life span of mice with L1210 leukemia cells at a dose of 80 mg/kg; type: functional
# [15] = test system: Mus musculus; assay: Median Survival days of mice infected with L1210 leukemia cells at dose 80 mg/kg relative to that of 9 days for control in expt 2; type: functional
# [16] = species: Mus musculus; assay: Compound was tested against weight change in mice with L1210 leukemia cells on 10 th Day at Dose 70 mg / kg; conditions: at 70 mg/kg
# [17] = test system: Mus musculus; assay: Median Survival days of mice infected with L1210 leukemia cells at dose 50 mg/kg relative to that of 10 days for control; type: functional
# [18] = test system: Mus musculus; assay: Median Survival days of mice infected with L1210 leukemia cells at dose 60 mg/kg relative to that of 10 days for control; type: functional
# [19] = species: Mus musculus; assay: Compound was tested against weight change in mice with L1210 leukemia cells on 10 th Day at Dose 50 mg / kg; conditions: at 50 mg/kg
# [20] = species: Mus musculus; assay: Compound was tested against weight change in mice with L1210 leukemia cells on 10 th Day at Dose 60 mg / kg; conditions: at 60 mg/kg
# [21] = test system: Mus musculus; assay: Increase in life span of mice with L1210 leukemia cells at a dose of 50 mg/kg; type: functional
# [22] = test system: Mus musculus; assay: Median Survival days of mice infected with L1210 leukemia cells at dose 70 mg/kg relative to that of 10 days for control; type: functional
# [23] = test system: Mus musculus; assay: Median Survival days of mice infected with L1210 leukemia cells at dose 70 mg/kg relative to that of 10 days for control; Toxic; type: functional, organism-based; parameters: dose 70 mg/kg
# [24] = test system: Mus musculus; assay: Increase in life span of mice with L1210 leukemia cells at a dose of 80 mg/kg; Toxic; type: functional, organism-based; parameters: dose 80 mg/kg
# [25] = test system: L1210; assay: cells; conditions: Mus musculus
# Description: Compound was tested for its inhibitory concentration to inhibit the growth of wild type L1210 cells; Range=0.01 to 0.03
# [26] = species: Homo sapiens; assay: Compound was tested for its inhibitory concentration against human leukemic lymphoblasts (CEM Cells) and a resistant subline (CEM / MTX).; type: functional; conditions: CCRF-CEM
# [27] = species: Homo sapiens; assay: Compound was tested for its inhibitory concentration against human leukemic lymphoblasts (CEM Cells); type: functional; conditions: CCRF-CEM
# [28] = test system: Mus musculus; assay: Median Survival days of mice infected with L1210 leukemia cells at dose 40 mg/kg relative to that of 9 days for control in expt 1; Toxic; type: functional, organism-based; parameters: dose 40 mg/kg
# [29] = test system: Mus musculus; assay: Median Survival days of mice infected with L1210 leukemia cells at dose 80 mg/kg relative to that of 9 days for control in expt 1; Toxic; type: functional, organism-based; parameters: dose 80 mg/kg
# [30] = species: Mus musculus; assay: Compound was tested against weight change in mice with L1210 leukemia cells on 10 th Day at Dose 20 mg / kg; conditions: at 20 mg/kg
# [31] = test system: Mus musculus; assay: Median Survival days of mice infected with L1210 leukemia cells at dose 10 mg/kg relative to that of 9 days for control in expt 1; type: functional
# [32] = test system: Mus musculus; assay: Increase in life span of mice with L1210 leukemia cells at a dose of 80 mg/kg in expt 2; Toxic; type: functional, organism-based; parameters: dose 80 mg/kg
# [33] = test system: Mus musculus; assay: Increase in life span of mice with L1210 leukemia cells at a dose of 40 mg/kg in expt 2; Toxic; type: functional, organism-based; parameters: dose 40 mg/kg
# [34] = species: Mus musculus; assay: Compound was tested against weight change in mice with L1210 leukemia cells on 7 th Day at Dose 10 mg / kg; type: functional; conditions: at 10 mg/kg
# [35] = species: Homo sapiens; assay: Compound was tested for its inhibitory concentration against human leukemic lymphoblasts (CEM Cells).; type: functional; conditions: CCRF-CEM
# [36] = test system: L1210; assay: Compound was tested for its inhibitory concentration to inhibit the growth of wild type L1210 cells; Mean of four separate assays; type: functional, cell-based; conditions: Mus musculus
# [37] = test system: Mus musculus; assay: Increase in life span of mice with L1210 leukemia cells at a dose of 80 mg/kg in expt 2; type: functional
# [38] = test system: Mus musculus; assay: Median Survival days of mice infected with L1210 leukemia cells at dose 20 mg/kg relative to that of 9 days for control in expt 1; type: functional
# [39] = test system: Mus musculus; assay: Increase in life span of mice with L1210 leukemia cells at a dose of 10 mg/kg in expt 1; type: functional
# [40] = test system: Mus musculus; assay: Increase in life span of mice with L1210 leukemia cells at a dose of 40 mg/kg in expt 1; type: functional
# [41] = test system: Mus musculus; assay: Increase in life span of mice with L1210 leukemia cells at a dose of 60 mg/kg in expt 1; type: functional
# [42] = test system: Mus musculus; assay: Increase in life span of mice with L1210 leukemia cells at a dose of 80 mg/kg in expt 1; type: functional
# [43] = test system: Mus musculus; assay: Median Survival days of mice infected with L1210 leukemia cells at dose 60 mg/kg relative to that of 9 days for control in expt 2; type: functional
# [44] = test system: Mus musculus; assay: Increase in life span of mice with L1210 leukemia cells at a dose of 100 mg/kg in expt 1; type: functional
Compound,IC50 [1] [nM],Weight change [2] [%],Survival [3] [days],"IC50 ([4]; Mus musculus, L1210) [nM]",IC50 ([4]; l1210) [nM],Survival [5] [days],Survival [7] [days],IC50 [8] [nM],Weight change [9] [%],Weight change [12],IC50/[E] [13],ILS at 80 mg/kg [14] [%],Survival [15] [days],Weight change [20] [%],IC50 [26] [nM],Weight change [30] [%],Survival [38] [days],further results
Nc1nc(N)c2nc(CNc3ccc(C(=O)NC(CCC(=O)NCc4c(Cl)cccc4Cl)C(=O)O)cc3)cnc2n1 (stereo not drawn),80,6,13,3.7,2,14,15,61000,-3,3% and 9%,2,44,13,–,–,–,–,ILS at 80 mg/kg [6]: 44%; ILS at 40 mg/kg [10]: 56%; ILS at 100 mg/kg [11]: 67%
Nc1nc(N)c2nc(CNc3ccc(C(=O)NC(CCC(=O)NCc4ccc(Cl)c(Cl)c4)C(=O)O)cc3)cnc2n1 (stereo not drawn),130,–,–,46,34,–,–,32000,–,-16%,3.3,50,–,0,–,–,–,Weight change [16]: -3%; Survival [17]: 15 days; Survival [18]: 17 days; Weight change [19]: 2%; ILS at 50 mg/kg [21]: 70%; Survival [22]: 21 days; Survival [23]: Toxic; ILS [24]: Toxic
CN(Cc1cnc2nc(N)nc(N)c2n1)c1ccc(C(=O)N[C@@H](CCC(=O)O)C(=O)O)cc1 [METHOTREXATE],–,–,–,–,–,–,–,–,–,–,–,–,–,–,6600,–,–,IC50 [25]: 30 nM; IC50 [27]: 32 nM
Nc1nc(N)c2nc(CNc3ccc(C(=O)NC(CCC(=O)Nc4ccc5c(c4)OCO5)C(=O)O)cc3)cnc2n1 (stereo not drawn),45,-20,–,3.2,–,–,–,28000,–,-26%,1.1,–,–,–,1000,3,14,Survival [28]: Toxic; Survival [29]: Toxic; Survival [31]: 12 days; ILS [32]: Toxic; ILS [33]: Toxic; Weight change [34]: 7%; IC50 [35]: 140 nM; IC50 [36]: 0.39 nM; ILS at 80 mg/kg [37]: 33%; ILS at 10 mg/kg [39]: 56%
CN(Cc1cnc2nc(N)nc(N)c2n1)c1ccc(C(=O)NC(CCC(=O)Nc2ccc3c(c2)OCO3)C(=O)O)cc1 (stereo not drawn),42,10,13,2.9,–,15,16,25000,1,6% and -5%,1.1,–,16,3,–,11,11,ILS at 40 mg/kg [40]: 78%; ILS at 60 mg/kg [41]: 56%; ILS at 80 mg/kg [42]: 67%; Survival [43]: 14 days; ILS at 100 mg/kg [44]: 78%
